Test results reported in the NIST ThermoML archive (doi:10.1021/je3009073).
Numbers after ± are expanded uncertainties.

Assay: xn = mol fraction of the nth substance listed
Details: 101 kPa, Liquid; for viscosity: Capillary tube (Ostwald / Ubbelohde) method; for mass density: Pycnometric method

CC(O)C(=O)[O-].CN(C)C(N)=[N+](C)C [1,1,3,3-tetramethylguanidinium lactate] + O
Details | mass density [kg/m3] | viscosity [mPa·s]
303.15 K, x2 = 0 | 1123.5 ± 2.3 | 13684 ± 1300
303.15 K, x2 = 0.1001 | 1124 ± 2.3 | 7665.3 ± 680
303.15 K, x2 = 0.2165 | 1124.3 ± 2.2 | 3594.1 ± 280
303.15 K, x2 = 0.3182 | 1124.7 ± 2.1 | 1926 ± 140
303.15 K, x2 = 0.409 | 1124.9 ± 2.1 | 1128.2 ± 72
303.15 K, x2 = 0.5036 | 1124.5 ± 2.1 | 554.56 ± 31
303.15 K, x2 = 0.6044 | 1122.8 ± 2 | 253.27 ± 12
303.15 K, x2 = 0.7034 | 1119.9 ± 2 | 104.72 ± 4.5
303.15 K, x2 = 0.8113 | 1111.2 ± 2 | 32.59 ± 1.4
303.15 K, x2 = 0.9017 | 1088.3 ± 2 | 8.68 ± 0.36
303.15 K, x2 = 0.95 | 1058.1 ± 2 | 3.32 ± 0.14
308.15 K, x2 = 0 | 1120.9 ± 2.3 | 7295.9 ± 640
308.15 K, x2 = 0.1001 | 1121.2 ± 2.3 | 4186.3 ± 340
308.15 K, x2 = 0.2165 | 1121.5 ± 2.2 | 2150.1 ± 150
308.15 K, x2 = 0.3182 | 1121.9 ± 2.1 | 1141.9 ± 73
308.15 K, x2 = 0.409 | 1122.1 ± 2.1 | 698 ± 41
308.15 K, x2 = 0.5036 | 1121.3 ± 2.1 | 352.18 ± 18
308.15 K, x2 = 0.6044 | 1119.7 ± 2.1 | 175.49 ± 8
308.15 K, x2 = 0.7034 | 1116.7 ± 2 | 74.98 ± 3.1
308.15 K, x2 = 0.8113 | 1107.9 ± 2 | 25.05 ± 1
308.15 K, x2 = 0.9017 | 1084.9 ± 2 | 7.1 ± 0.29
308.15 K, x2 = 0.95 | 1055 ± 2 | 2.83 ± 0.12
313.15 K, x2 = 0 | 1117.6 ± 2.3 | 3961.9 ± 320
313.15 K, x2 = 0.1001 | 1117.9 ± 2.3 | 2412.1 ± 180
313.15 K, x2 = 0.2165 | 1118.1 ± 2.2 | 1263.3 ± 82
313.15 K, x2 = 0.3182 | 1118.4 ± 2.1 | 718.88 ± 42
313.15 K, x2 = 0.409 | 1118.5 ± 2.1 | 429.45 ± 23
313.15 K, x2 = 0.5036 | 1117.6 ± 2.1 | 235.35 ± 11
313.15 K, x2 = 0.6044 | 1116.1 ± 2.1 | 122.11 ± 5.3
313.15 K, x2 = 0.7034 | 1113.1 ± 2 | 55.39 ± 2.2
313.15 K, x2 = 0.8113 | 1104.2 ± 2 | 19.16 ± 0.78
313.15 K, x2 = 0.9017 | 1081.5 ± 2 | 5.87 ± 0.24
313.15 K, x2 = 0.95 | 1051.5 ± 2 | 2.41 ± 0.1
318.15 K, x2 = 0 | 1114.3 ± 2.3 | 2264.3 ± 160
318.15 K, x2 = 0.1001 | 1114.5 ± 2.3 | 1261.7 ± 83
318.15 K, x2 = 0.2165 | 1114.6 ± 2.2 | 797.81 ± 48
318.15 K, x2 = 0.3182 | 1114.9 ± 2.1 | 458.45 ± 25
318.15 K, x2 = 0.409 | 1114.9 ± 2.1 | 289.6 ± 14
318.15 K, x2 = 0.5036 | 1114.1 ± 2.1 | 167.33 ± 7.5
318.15 K, x2 = 0.6044 | 1112.6 ± 2.1 | 89.04 ± 3.7
318.15 K, x2 = 0.7034 | 1109.6 ± 2 | 42 ± 1.7
318.15 K, x2 = 0.8113 | 1100.6 ± 2 | 15.25 ± 0.62
318.15 K, x2 = 0.9017 | 1078.1 ± 2 | 4.94 ± 0.2
318.15 K, x2 = 0.95 | 1048.4 ± 2 | 2.1 ± 0.1
323.15 K, x2 = 0 | 1111.6 ± 2.3 | 1365.5 ± 90
323.15 K, x2 = 0.1001 | 1111.7 ± 2.3 | 890.99 ± 54
323.15 K, x2 = 0.2165 | 1111.7 ± 2.2 | 502.11 ± 28
323.15 K, x2 = 0.3182 | 1112 ± 2.1 | 310.53 ± 16
323.15 K, x2 = 0.409 | 1111.8 ± 2.1 | 201.98 ± 9.4
323.15 K, x2 = 0.5036 | 1111.1 ± 2.1 | 120.29 ± 5.2
323.15 K, x2 = 0.6044 | 1109.2 ± 2.1 | 64.59 ± 2.6
323.15 K, x2 = 0.7034 | 1106.7 ± 2 | 32.53 ± 1.3
323.15 K, x2 = 0.8113 | 1097.1 ± 2 | 12.34 ± 0.5
323.15 K, x2 = 0.9017 | 1074.5 ± 2 | 4.2 ± 0.17
323.15 K, x2 = 0.95 | 1045.6 ± 2 | 1.86 ± 0.08
328.15 K, x2 = 0 | 1108.1 ± 2.3 | 867.05 ± 53
328.15 K, x2 = 0.1001 | 1108.1 ± 2.3 | 579.99 ± 33
328.15 K, x2 = 0.2165 | 1108.2 ± 2.2 | 341 ± 17
328.15 K, x2 = 0.3182 | 1108.4 ± 2.1 | 218.6 ± 10
328.15 K, x2 = 0.409 | 1108.2 ± 2.1 | 146.62 ± 6.5
328.15 K, x2 = 0.5036 | 1107.4 ± 2.1 | 88.71 ± 3.7
328.15 K, x2 = 0.6044 | 1105.6 ± 2.1 | 49.38 ± 2
328.15 K, x2 = 0.7034 | 1102.9 ± 2 | 25.68 ± 1
328.15 K, x2 = 0.8113 | 1093.2 ± 2 | 10.19 ± 0.41
328.15 K, x2 = 0.9017 | 1070.6 ± 2.1 | 3.62 ± 0.15
328.15 K, x2 = 0.95 | 1042.5 ± 2.1 | 1.65 ± 0.07
